Publication PMC9243770, “Structural and Biophysical Characterization of Purified Recombinant Arabidopsis thaliana's Alternative Oxidase 1A (rAtAOX1A): Interaction With Inhibitor(s) and Activator” (Frontiers in Plant Science, 2022)
pKd: −log10 of the molar value.

Tests used:
[1] = target: T1, Alternative oxidase 1A (rAtAOX1A) (Arabidopsis thaliana, UniProt Q39219); assay: oxygen uptake of purified enzyme with […] duroquinol (Clark-type electrode); assay type: biochemical
T1 construct: gene AOX1A; mature protein, N-terminal His6-tag, expressed in E. coli BL21(DE3)
T1 sequence (Q39219 63-354): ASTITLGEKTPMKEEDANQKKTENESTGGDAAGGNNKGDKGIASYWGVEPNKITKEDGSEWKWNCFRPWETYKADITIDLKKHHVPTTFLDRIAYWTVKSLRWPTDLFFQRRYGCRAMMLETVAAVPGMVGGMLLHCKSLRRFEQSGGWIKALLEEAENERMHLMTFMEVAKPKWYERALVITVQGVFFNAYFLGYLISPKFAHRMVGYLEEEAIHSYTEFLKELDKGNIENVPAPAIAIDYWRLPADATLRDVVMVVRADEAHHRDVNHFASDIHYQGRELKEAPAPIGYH

[2] = target: T1, Alternative oxidase 1A (rAtAOX1A); assay: SPR (Biacore, CM5 chip, […] Langmuir kinetic fit); also CD and inhibition of cell respiration; assay type: binding

Row | SMILES | oxygen uptake of purified enzyme with 600 μM duroquinol (Clark-type electrode) [1] | pKd [2]
1 | Cc1c(C)c(O)c(C)c(C)c1O [DQH2, duroquinol] | 3.86 μmol O2 min^−1 mg^−1 protein | 
2 | O=C(NO)c1ccccc1O [SHAM, salicylhydroxamic acid] |  | 8.51
3 | CCCOC(=O)c1cc(O)c(O)c(O)c1 [n-PG, n-propyl gallate] |  | 9.31
